{"source": "patent US20240153607A1", "about": "“System for Determining Treatment Timing and Methods of Treatment Timed Based on Biological Process Indicators” (Arcascope Inc., priority 2022, published 2024)", "origin": "cited, not measured here", "details": "cancer treatments in humans; [Hrushesky], [Lévi1990]", "data": [{"molecule": "COc1cccc2c1C(=O)c1c(O)c3c(c(O)c1C2=O)C[C@@](O)(C(=O)CO)C[C@@H]3O[C@H]1C[C@H](N)[C@H](O)[C@H](C)O1", "note": "[doxorubicin]", "values": [{"measurement": "time of day at which the drug is most tolerable (toxicity by time of day)", "value": "most tolerable in the morning"}]}, {"molecule": "COc1cccc2c1C(=O)c1c(O)c3c(c(O)c1C2=O)C[C@@](O)(C(=O)CO)C[C@@H]3O[C@H]1C[C@H](N)[C@H](O[C@@H]2CCCCO2)[C@H](C)O1", "note": "[theprubicin]", "values": [{"measurement": "time of day at which the drug is most tolerable (toxicity by time of day)", "value": "most tolerable in the morning"}]}]}
